The test system of data set [1] is BSA (bovine serum albumin). Nature of the data set: BSA degradation test (anti-oxidative activity, Cu2+/H2O2). The class given is biochemical.
Description: The hydroxyl radical-mediated oxidation experiments were carried out by metal-catalyzed reactions. BSA (bovine serum albumin) was dissolved in 150 mM phosphate buffer (pH 7.3) to a final concentration of 0.5 mg/ml. […] 50 μg/ml of ascorbic acid was directly dissolved in 1×PBS and served as a control (an anti-oxidant). After incubation in an open tube, the reaction was kept to stand in a 37° C. shaking water bath. Each experimental group was loaded on 10% SDS-PAGE and stained with 0.01% Coomassie blue.
50 μg of BSA (Sigma) was added to 37.5 mM phosphate buffers (pH 7.3) containing 100 μM Cu^2+, 2.5 mM H2O2 and various amounts of hirsutanonol (1, 50, 100/200 μg/ml), and incubated at 37° C. for 2 hrs. Vitamin C (50 μg/ml) was served as a positive control. The reaction mixture was separated on 10% SDS gel and the protein bands were stained with 0.01% Coomassie blue.
Evaluation of anti-oxidative activity was preformed according to a BSA (bovine serum albumin) degradation test. BSA degradation test is a method to verify a capacity of an anti-oxidative compound which protects proteins or enzymes from damage by reactive oxygen species (ROS) using a metal ion-catalyzed reaction. […] The reaction mixture was electrophoresized on 10% SDS-PAGE (SDS-polyacrylamide gel).
To examine anti-oxidative activity of hirsutanonol, the removal of radical produced from H2O2/Cu^2+ was measured.
A further data set has as its system Jurkat cells. Nature of the data set: Inhibition of cell proliferation, CCK assay (WST-8). In kind it is cell-based, human. The protocol: FIG. 7 is a graph measuring the inhibitory effect of hirsutanonol on cell proliferation. Jurat cells were seeded into a 96 well plate at a concentration of 1×10^4 cells per well, and cultured in 2% FBS DMEM with or without hirsutanonol. Cell numbers were counted in triplicate wells by measuring the absorbance of reduced WST-8 (Dojindo, Japan) at 450 nm.
Hirsutanonol activity to inhibit cell proliferation of Jurkat cells was tested using CCK assay. […] Therefore, about 50 μg/ml of hirsutanonol was used in experiments to assess in vitro activity of hirsutanonol.

For data set [2], the system named is IL-2. The data set is described as follows: IL-2 expression in anti-CD3 activated murine splenocytes, ELISA. In kind it is cell-based, mouse. The protocol: FIG. 8 is the experimental results showing the inhibitory effect of hirsutanonol on IL-2 expression. Murine splenocytes were grown on 96 well plate at a concentration of 1.5×10^4 cells per well. For T cell activation, CsA (50 nM) and hirsutanonol were added into a well added with anti-CD3 mAb and into all of other wells. Cells were incubated for 72 hrs and then ELISA was carried out using the supernatants collected from each well.
IL-2 is a cytokine expressed in Th1 cells and plays a crucial role in the proliferation of T cells. Hirsutanonol was added to splenic T cells which have been primarily cultured from murine splenocytes and pre-activated by anti-CD3 mAb. Inhibitory activity of hirsutanonol on IL-2 expression was measured using ELISA. Cyclosporine A (CsA) with strong inhibitory activity against IL-2 secretion was served as a positive control.
On the technique in general: In an ELISA, binding on a coated surface is turned into a signal by an enzyme label.

In data set [3] the test system is IL-2. Nature of the data set: IL-2 mRNA expression in anti-CD3 activated splenocytes, RT-PCR. The class given is cell-based, mouse. The protocol:
(§1) FIG. 9 represents RT-PCR results showing an inhibitory effect of hirsutanonol on Th1 and Th2 cytokine expression. Murine splenocytes were cultured on 12 well plate (RT-PCR) at a concentration of 1.5×10^4 cells per well. For T cell activation, CsA (50 nM) and hirsutanonol were added into a well added with anti-CD3 mAb and all of other wells. Cells were incubated for 24 hrs and then […] was carried out. GAPDH was served as an internal control.
(§2) The mRNA expression levels of Th1 cytokines, IL-2 and Th2 cytokines, IL-4, IL-10 and IL-13 were examined. T cells activated by anti-CD3 mAb among spleen lymphocytes were used as a target. The primer sequences used to analyze IL-2, IL-4, IL-10 and IL-13 mRNA are as follows.

For the next data set, the system named is IL-4. Nature of the data set: IL-4 mRNA expression in anti-CD3 activated splenocytes, RT-PCR. The class given is cell-based, mouse. The protocol: as §1, §2
Another data set has as its system IL-10. The data set is described as follows: IL-10 mRNA expression in anti-CD3 activated splenocytes, RT-PCR. In kind it is cell-based, mouse. As to the method:
as §1, §2

For the next data set, the system named is IL-13. Nature of the data set: IL-13 mRNA expression in anti-CD3 activated splenocytes, RT-PCR. In kind it is cell-based, mouse. The protocol:
as §1, §2

For another data set, the system named is rat mast cell (RBL-2H3). Nature of the data set: β-hexosaminidase assay (mast cell degranulation). The class given is cell-based. The protocol: FIG. 10 represents experimental results of β-hexosaminidase assay for hirsutanonol. The β-hexosaminidase (beta-hex) assay was performed according to the standard protocol of RBL-2H3 cell line. Suitable supernatant was collected and beta-hex activity was measured by incubating with a beta-hex substrate (p-nitrophenyl N-acetyl-beta-D-glucosaminide; Sigma) colored at 405 nm by cutting.
For testing the degranulation in rat mast cell (RBL-2H3) by hirsutanonol, β-hexosaminidase assay was carried out. β-hexosaminidase assay allows us to measure the activity and degranulation of mast cells.

Another data set concerns CD25/CD69. Nature of the data set: T-cell early activation markers, flow cytometry. The class given is cell-based, mouse. Conditions: 100 μg/ml, splenocytes stimulated by anti-CD3 mAb, 24 hrs. As to the method:
FIG. 12 is a flow cytometry result analyzing the changes of CD25/CD69 expression induced by hirsutanonol. Splenocytes were stimulated by anti-CD3 mAb in the presence or absence of hirsutanonol. Each hirsutanonol and CsA was treated at concentrations of 50 and 100 μg/ml, and 50 nM. After incubation for 24 hrs, the percentage of cells expressing CD25 and CD69 were measured using flow cytometry.
CD25 and CD69 expression levels were comparatively measured in the group of basal, CsA and hirsutanonol (50, 100 μg/ml) respectively. CsA was used as a control group due to its strong inhibitory activity on CD25 and CD69 expression. The results were represented in FIG. 12.
(In general: Flow cytometry measures light scatter and fluorescence of single cells or particles in a stream.)

Data set [4] in a line: Solubility in water on preparing the stock solution. Particulars: stock solution preparation.
Excerpt: The final concentration of DMSO was adjusted to not more than 0.1% so as to maximally exclude the interference of the solvent. […] The prepared stock solutions were stored and then used after dilution to the suitable concentration.

As to `O=C(CCc1ccc(O)c(O)c1)CC(O)CCc1ccc(O)c(O)c1` (stereo not drawn) [hirsutanonol], in data set [1] (hirsutanonol 100 μg/ml), the BSA protection effect result is “significantly exhibited BSA protection effect”. For the same compound, in [1] (hirsutanonol 1, 50, 100/200 μg/ml, Cu2+ 100 μM, H2O2 2.5 mM), the “activity to protect BSA” value is “increased in a concentration-dependent manner”. Moreover, the “BSA protection effect compared to Vitamin C” value in [1] (hirsutanonol, Vitamin C 50 μg/ml positive control) is on record as “lower than that of Vitamin C”. Also, the “concentration exhibiting inhibitory effects on cell proliferation” value in the data set on Jurkat cells is reported as “over 50 μg/ml”. The “inhibitory effect on IL-2 expression compared to CsA” value with IL-2 [2] (50 μg/ml or 100 μg/ml, CsA 50 nM, 72 hrs) was “much higher than that of CsA”. The “inhibition effect on IL-2 secretion” value in the data set on IL-2 [2] (50 μg/ml, without cytotoxicity) is given as “remarkably exhibited”. Also, the “inhibitory activity on IL-2 mRNA expression” value with IL-2 [3] (50 μg/ml or 100 μg/ml) is reported as “significant inhibitory activity”. Further, in the data set on IL-2 [3] (100 μg/ml, CsA 50 nM), the “inhibitory effect on IL-2 mRNA expression compared to CsA” value is “inhibitory effect equal to CsA”. Besides, in the data set on IL-4 (50 μg/ml or 100 μg/ml), the “inhibitory activity on IL-4 mRNA expression” value is “significant inhibitory activity”. Moreover, the “inhibitory effect on IL-4 mRNA expression compared to CsA” value with IL-4 (100 μg/ml, CsA 50 nM) is “inhibitory effect equal to CsA”. In addition, the “inhibitory activity on IL-10 mRNA expression” value in the data set on IL-10 (50 μg/ml or 100 μg/ml) is on record as “significant inhibitory activity”. Further, the “inhibitory effect on IL-10 mRNA expression compared to CsA” value in the data set on IL-10 (100 μg/ml, CsA 50 nM) was “inhibitory effect equal to CsA”. In the data set on IL-13 (50 μg/ml or 100 μg/ml), the “inhibitory activity on IL-13 mRNA expression” value was “significant inhibitory activity”. In addition, in the data set with IL-13 (100 μg/ml, CsA 50 nM), the “inhibitory effect on IL-13 mRNA expression compared to CsA” value is “inhibitory effect equal to CsA”. The “activity level of β-hexosaminidase” value in the data set with rat mast cell (RBL-2H3) (100 μg/ml) is recorded as “maximally inhibited”. Further, the “inhibitory capability compared to CsA” value with rat mast cell (RBL-2H3) (β-hexosaminidase) was determined as 20 fold. For the same compound, in the data set with CD25/CD69, the “inhibitory activity on CD25/CD69 expression compared to basal and CsA” value is “excellent inhibitory activity”.

For `O=C(CCc1ccc(O)c(O)c1)C[C@H](CCc1ccc(O)c(O)c1)O[C@@H]1OC[C@@H](O)[C@H](O)[C@H]1O` [oregonin], the solubility in water result in data set [4] is given as “feasibly dissolved in water”.

For the origin of these results see patent US20100190729A1 (CHUNG-ANG University Industry Academic Cooperation …, priority 2009, published 2010).
